# Patent US8642580B2, “Combined therapy against tumors comprising substituted acryloyl distamycin derivatives and platinum derivatives” (priority 2000, dated 2014)
# How the values were obtained:
# [1] = test system: disseminated L1210 murine leukemia; assay: Antileukemic activity against disseminated L1210 murine leukemia; format: in vivo; settings: for ILS % (increase in life span): L1210 10^5 cells/mouse IV day 0; for ILS % (increase in life span) / Tox (number of toxic deaths/number of mice): PNU 166196 0.26 mg/kg/day iv days +1,2, combination same doses and schedule; for Toxicity (in words): single agents: cisplatin 5.9 mg/kg day +3, carboplatin 135 mg/kg day +3, PNU 166196 0.26 mg/kg days +1,2
# [2] = test system: human colon carcinoma HCT-116 (low/medium GST and MMR deficiency); assay: Antitumor activity against subcutaneous implanted HCT-116 human colon carcinoma; format: in vivo; settings: for Log cell Kill total / WL % day of nadir / WL % / Tumor free/total mice: IV q7dx3; for Log cell Kill total / WL % day of nadir / WL % / T/C % (tumor regression) / Tumor free/total mice: PNU 166196 0.4 mg/kg, cisplatin 2 mg/kg; for WL %: at nadir; for T/C % (tumor regression): day 20 after treatment, IV q7dx3 from day 7 after implant, PNU 166196 48 hours after cisplatin, NCI: T/C ≦ 42 active; for Tumor free/total mice: on day 40 after tumor implant
# [3] = Table 1, cisplatin 5.9 mg/kg iv day +3
# [4] = Table 2, carboplatin 135 mg/kg iv day +3
Compound,"ILS % (increase in life span) [1, 3] [%]",Log cell Kill total [2],WL % day of nadir [2] [days],WL % [2] [%],T/C % (tumor regression) [2] [%],Tumor free/total mice [2],"Tox (number of toxic deaths/number of mice) [1, 3]","ILS % (increase in life span) [1, 4] [%]","Tox (number of toxic deaths/number of mice) [1, 4]",Toxicity (in words) [1],"Toxicity (in words) ([2]; single agents: cisplatin 2 mg/kg q7dx3, PNU 166196 0.4 mg/kg q7dx3)"
"N.N.[Cl][Pt][Cl] [Cisplatin, cisplatin, reference compound]",67,0,24,12,92,0/7,,,,,
"C=C(Br)C(=O)Nc1cc(C(=O)Nc2cc(C(=O)Nc3cc(C(=O)Nc4cc(C(=O)NCCNC(=N)N)n(C)c4)n(C)c3)n(C)c2)n(C)c1.Cl [PNU 166196, N-(5-{[(5-{[(5-{[(2-{[amino(imino)methyl]amino}ethyl)amino]carbonyl}-1-methyl-1H-pyrrol-3-yl)amino]carbonyl}-1-methyl-1H-pyrrol-3-yl)amino]carbonyl}-1-methyl-1H-pyrrol-3-yl)-4-[(2-bromoacryloyl)amino]-1-methyl-1H-pyrrole-2-carboxamide hydrochloride]",33,0.15,29,12,61,0/8,0/10,33,0/10,without toxicity,without toxicity
"N.N.O=C([O-])C1(C(=O)[O-])CCC1.[Pt+2] [Carboplatin, carboplatin, reference compound]",,,,,,,,50,0/10,without toxicity,
